The subject of assay [1] is Aspergillus terreus ATCC MYA-3633 (strain M). Put plainly: MIC, filamentous fungi (CLSI M38-A2), strain M. In kind it is cell-based. The conditions noted are these: MIC-0, strain M, 35 °C 72 h. The method, then: (§1) The spores were harvested from sporulating cultures growing on potato dextrose agar (PDA) by filtration through sterile glass wool and enumerated by using a hemocytometer (Hausser Scientific, Horsham, PA, USA) to obtain the desired inoculum size. Two-fold serial dilutions of compounds 3, 4, 7a, 7b, 9, and 16, as well as CAS and TOB were made in sterile 96-well microtiter plates to obtain the final concentration range of 0.24–62.5 μg/mL for TOB and TOB derivatives as well as 0.03–31.3 μg/mL for CAS in the RPMI 1640 medium. The spore suspensions were added to the wells to afford a final concentration of 5 × 10^5 spores/mL. The plates were incubated at 35 °C for 72 h. […] Each test was performed in triplicate.

Assay [2] relates to Candida krusei ATCC 6258 (strain I). Briefly: MIC, broth microdilution (CLSI M27-A3), yeast strain I. It is filed as cell-based. As to conditions: Pichia kudriavzevii, ATCC6258; MIC-0, strain I, 35 °C 48 h. As for the experimental part: (§2) The final concentrations of compounds 3, 4, 7a, 7b, 9, and 16, as well as that of TOB tested in this study ranged from 0.24–62.5 μg/mL. CAS was used as a positive control and the final concentrations tested for CAS ranged from 0.03–31.3 μg/mL. Briefly, overnight yeast cultures were grown in yeast peptone dextrose (YPD) broth and the cell density was adjusted to an OD600 of 0.12 (~1 × 10^6 CFU/mL) by using a spectrophotometer. Yeast cell suspensions were further diluted to achieve 1–5 × 10^3 CFU/mL in RPMI 1640 medium, and 100 μL of these yeast cells was added to 96-well microtiter plates containing RPMI 1640 medium and titrated compounds. Each test was performed in triplicate. The plates were incubated at 35 °C for 48 h.

Assay [3] relates to C. albicans ATCC 64124 (strain B). Put plainly: MIC, broth microdilution (CLSI M27-A3), yeast strain B. In kind it is cell-based. The conditions noted are these: Candida albicans, ATCC64124; MIC-0, strain B, 35 °C 48 h. The method, then: as §2
For orientation: Dilution methods test growth across graded concentrations, often in twofold steps.

Assay [4] relates to nine non-albicans Candida strains (H-J, CG1-3, CP1-3). Put plainly: MIC across the panel of nine non-albicans Candida strains. In kind it is cell-based, Candida glabrata, Candida krusei, Candida parapsilosis. The method, then:
as §2

Assay [5] has as its system Candida parapsilosis clinical isolate CP2. Put plainly: MIC, broth microdilution (CLSI M27-A3), CP2. It is filed as cell-based. The conditions noted are these: Lodderomyces parapsilosis; MIC-0, CP2, 35 °C 48 h. As for the experimental part: as §2
The subject of assay [6] is Candida parapsilosis ATCC 22019 (strain J). Put plainly: MIC, broth microdilution (CLSI M27-A3), yeast strain J. The conditions noted are these: Lodderomyces parapsilosis, ATCC22019; MIC-0, strain J, 35 °C 48 h. It is filed as cell-based. The method, then: as §2
Assay [7] deals with Candida glabrata clinical isolate CG3. Put plainly: MIC, broth microdilution (CLSI M27-A3), CG3. In kind it is cell-based. The conditions noted are these: Nakaseomyces glabratus; MIC-0, CG3, 35 °C 48 h. The method, then: as §2
Assay [8] has as its system Cryptococcus neoformans clinical isolate CN2. Briefly: MIC, broth microdilution (CLSI M27-A3), CN2. It is filed as cell-based. As to conditions: MIC-0, CN2, 35 °C 48 h. The method, then: as §2
Assay [9] relates to Cryptococcus neoformans clinical isolate CN1. Briefly: MIC, broth microdilution (CLSI M27-A3), CN1. The conditions noted are these: MIC-0, CN1, 35 °C 48 h. In kind it is cell-based. The method, then: as §2
The subject of assay [10] is C. albicans ATCC MYA-2876(S) (strain C). Briefly: MIC, broth microdilution (CLSI M27-A3), yeast strain C. In kind it is cell-based. The conditions noted are these: Candida albicans; MIC-0, strain C, 35 °C 48 h. The method, then: as §2
The test system of assay [11] is C. albicans ATCC 90819(R) (strain D). Put plainly: MIC, broth microdilution (CLSI M27-A3), yeast strain D. As to conditions: Candida albicans, ATCC90819; MIC-0, strain D, 35 °C 48 h. It is filed as cell-based. The method, then:
as §2

Assay [12] has as its system Candida glabrata clinical isolate CG2. Put plainly: MIC, broth microdilution (CLSI M27-A3), CG2. The conditions noted are these: Nakaseomyces glabratus; MIC-0, CG2, 35 °C 48 h. It is filed as cell-based. The method, then: as §2
Assay [13] has as its system Cryptococcus neoformans clinical isolate CN3. Briefly: MIC, broth microdilution (CLSI M27-A3), CN3. It is filed as cell-based. As to conditions: MIC-0, CN3, 35 °C 48 h. The method, then:
as §2

Assay [14] concerns Candida glabrata clinical isolate CG1. Briefly: MIC, broth microdilution (CLSI M27-A3), CG1. It is filed as cell-based. As to conditions: Nakaseomyces glabratus; MIC-0, CG1, 35 °C 48 h. The method, then: as §2
Assay [15] relates to Aspergillus nidulans ATCC 38163 (strain L). Briefly: MIC, filamentous fungi (CLSI M38-A2), strain L. In kind it is cell-based. The conditions noted are these: MIC-0, strain L, 35 °C 72 h. The method, then: as §1
Another assay relates to BEAS-2B cell line. Briefly: In vitro cytotoxicity assay (resazurin), BEAS-2B. It is filed as cell-based, human. As to conditions: Homo sapiens, 24 h, resazurin. The method, then:
Mammalian cytotoxicity assays were performed as previously described with minor modifications. The normal human bronchial epithelial cells BEAS-2B and the human lung carcinoma epithelial cells A549 were grown in DMEM containing 10% fetal bovine serum (FBS) and 1% antibiotics. The confluent cells were then trypsinized with 0.05% trypsin and 0.53 mM EDTA, and resuspended in fresh DMEM medium. The cells were transferred into 96-well microtiter plates at a density of 3000 cells/well and were grown for 24 h. The following day, the medium was replaced by a fresh culture medium containing serially diluted compounds 3, 4, 7a, 7b, and 9, as well as the parent drug TOB at final concentrations of 0.48–62.5 μg/mL or sterile ddH2O (negative control). The cells were incubated for an additional 24 h at 37 °C with 5% CO2 in a humidified incubator. To evaluate cell survival, each well was treated with 10 μL (25 μg/mL) of resazurin sodium salt (Sigma-Aldrich) for 4–6 h. Metabolically active cells can convert resazurin (blue) to the highly fluorescent dye resorufin (pink), which was detected at λ560 excitation and λ590 emission wavelengths by using a SpectraMax M5 plate reader. Triton X-100® (1% v/v) gave the complete loss of cell viability and was used as the positive control. The percentage survival rates were calculated by using the following formula: % cell survival = [(fluorescence of sample) − (fluorescence of blank)] × 100/[(fluorescence of negative control) − (fluorescence of blank)].
(In general: The colour change of resazurin is a common sign of viable cells or microbes.)

Assay [16] deals with seven C. albicans strains (A-G). Briefly: MIC across the panel of seven C. albicans strains. As to conditions: Candida albicans; across all seven C. albicans strains tested. It is filed as cell-based. The method, then: as §2
[17] abbreviates: Aspergillus nidulans, ATCC38163, 72 h, read-out: MIC.

Values after ≈ are worked out from the molar mass of the structure shown. Where two headings read alike, the source gives them in different places.

In general, MIC refers to the lowest concentration found to suppress growth. In general, IC50 refers to the point on the concentration scale where inhibition reaches its midpoint. A lower IC50 goes with greater potency in that assay.

Consider `CCCCCCCCCCCCSC[C@H]1O[C@H](O[C@@H]2[C@@H](O)[C@H](O[C@H]3O[C@H](CN)[C@@H](O)C[C@H]3N)[C@@H](N)C[C@H]2N)[C@H](O)[C@@H](N)[C@@H]1O` [Compound 3, O-3-Amino-3-deoxy-6-S-dodecyl-6-thio-α-D-glucopyranosyl-(1→6)-O-[2,6-diamino-2,3,6-trideoxy-α-D-ribo-hexopyranosyl-(1→4)]-2-deoxy-D-streptamine], for which the minimum inhibitory concentration (MIC) in [1] was > 62.5 mg/L; in assay [2], 3.9 mg/L (≈ 5.98 µM); in [3], 15.6 mg/L (≈ 23.9 µM); in assay [4], 3.9 to 15.6 mg/L (≈ 5.98 to 23.9 µM); in [5], 7.8 mg/L (≈ 12 µM); in [6], 7.8 mg/L (≈ 12 µM). The MIC in [7] is 15.6 mg/L (≈ 23.9 µM); in assay [8], 0.48 mg/L (≈ 0.736 µM); in assay [9], 0.975 mg/L (≈ 1.5 µM); in [10] it was 15.6 mg/L (≈ 23.9 µM); in [11], 15.6 mg/L (≈ 23.9 µM); in assay [12] it was 7.8 mg/L (≈ 12 µM). For the same compound, the MIC in assay [13] was 0.48 mg/L (≈ 0.736 µM); in assay [14], 15.6 mg/L (≈ 23.9 µM); in assay [15] (setting [17]), 1.95 to 3.9 mg/L (≈ 2.99 to 5.98 µM); in assay [15], 3.9 mg/L (≈ 5.98 µM); in assay [16], 7.8 to 31.3 mg/L (≈ 12 to 48 µM). The IC50 in the assay on BEAS-2B cell line lay within 31.3 to 62.5 mg/L (≈ 48 to 95.9 µM).

In the case of `CCCCCCCCCCCCS(=O)(=O)C[C@H]1O[C@H](O[C@@H]2[C@@H](O)[C@H](O[C@H]3O[C@H](CN)[C@@H](O)C[C@H]3N)[C@@H](N)C[C@H]2N)[C@H](O)[C@@H](N)[C@@H]1O` [Compound 4, O-3-Amino-3,6-dideoxy-6-(dodecylsulfonyl)-α-D-glucopyranosyl-(1→6)-O-[2,6-diamino-2,3,6-trideoxy-α-D-ribo-hexopyranosyl-(1→4)]-2-deoxy-D-streptamine], the MIC in assay [1] was 62.5 mg/L (≈ 91.4 µM); in assay [2], 7.8 mg/L (≈ 11.4 µM); in assay [3], 31.3 mg/L (≈ 45.8 µM); in [4], 3.9 to 15.6 mg/L (≈ 5.7 to 22.8 µM); in assay [5] it was 3.9 mg/L (≈ 5.7 µM); in assay [6], 7.8 mg/L (≈ 11.4 µM). Also, the MIC in assay [7] worked out at 3.9 mg/L (≈ 5.7 µM); in [8], 0.48 mg/L (≈ 0.702 µM); in [9], 1.95 mg/L (≈ 2.85 µM); in [10], 15.6 mg/L (≈ 22.8 µM); in assay [11] it was 15.6 mg/L (≈ 22.8 µM); in assay [12], 3.9 mg/L (≈ 5.7 µM). For the same compound, the minimal inhibitory concentration (MIC) in assay [13] is 0.975 mg/L (≈ 1.43 µM); in assay [14], 7.8 mg/L (≈ 11.4 µM); in assay [15] (setting [17]), 1.95 to 3.9 mg/L (≈ 2.85 to 5.7 µM); in [15], 3.9 mg/L (≈ 5.7 µM); in assay [16], 7.8 to 31.3 mg/L (≈ 11.4 to 45.8 µM). Moreover, the IC50 in the assay with BEAS-2B cell line was > 62.5 mg/L.

For the origin of these results see PMC5971061, “Differential Effects of Linkers on the Activity of Amphiphilic Tobramycin Antifungals” (Molecules : A Journal of Synthetic Chemistry and Natural …, 2018).
